According to BindingDB's records for doi:10.1021/jm00163a063 (Merrell Dow Research Institute, 1990):
Peptide text beside a SMILES is read from it. * marks the point of attachment. MeOSuc = COC(=O)CCC(=O)*; Cbz = O=C(OCc1ccccc1)*; Boc = CC(C)(C)OC(=O)*; CF3 = FC(F)(F)*

Tests used:
[1] = target: Cathepsin G (Rattus norvegicus); assay: Binding affinity against rat Cathepsin G
[2] = Binding affinity against human Elastase for more active diasteriomer
[3] = target: Neutrophil elastase (Homo sapiens) (UniProt P08246); assay: Binding affinity against human Elastase
Neutrophil elastase (Homo sapiens), sequence (P08246 whole entry, looked up): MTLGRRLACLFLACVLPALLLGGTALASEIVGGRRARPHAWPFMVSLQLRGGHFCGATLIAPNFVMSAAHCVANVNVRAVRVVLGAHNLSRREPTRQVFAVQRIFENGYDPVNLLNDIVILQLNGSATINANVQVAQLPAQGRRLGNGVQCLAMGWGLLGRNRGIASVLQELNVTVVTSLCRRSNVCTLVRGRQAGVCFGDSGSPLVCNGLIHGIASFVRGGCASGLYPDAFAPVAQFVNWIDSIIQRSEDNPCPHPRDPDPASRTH

SMILES	Ki [2]	also measured
COC(=O)CCC(=O)N[C@H](C(=O)N1CCC[C@H]1C(=O)N[C@@H](Cc1ccccc1)C(=O)C(F)(F)F)C(C)C (MeOSuc-Val-Pro-Phe-CF3)		Ki [1]: 0.2 µM
CC(C)[C@H](NC(=O)[C@@H]1CCCN1C(=O)[C@H](C)NC(=O)[C@H](C)NC(=O)OCc1ccccc1)C(=O)C(F)(F)F (Cbz-AAPV-CF3)	0.001 µM	
CC(C)[C@H](NC(=O)[C@@H]1CCCN1C(=O)[C@H](C)NC(=O)[C@H](C)NC(=O)OC(C)(C)C)C(=O)C(F)(F)F (Boc-AAPV-CF3)	0.044 µM	
COC(=O)CCC(=O)NCCCC[C@H](NS(=O)(=O)C12CC3CC(CC(C3)C1)C2)C(=O)N1CCC[C@H]1C(=O)N[C@H](C(=O)C(F)(F)F)C(C)C	0.00058 µM	
CC(=O)N[C@@H](C)C(=O)N[C@@H](C)C(=O)N1CCC[C@H]1C(=O)N[C@@H](C)C(=O)C(F)(F)F (Ac-AAPA-CF3)		Ki [3]: 24 µM
CCOC(=O)C(F)(F)C(=O)[C@@H](NC(=O)[C@@H]1CCCN1C(=O)[C@H](C)NC(=O)[C@H](C)NC(=O)CCC(=O)OC)C(C)C	4.3 µM	
COC(=O)C(=O)[C@H](C)NC(=O)[C@@H]1CCCN1C(=O)[C@H](C)NC(=O)[C@@H]1CCCN1C(C)=O	0.85 µM	
